{
  "source": "patent US5240696A",
  "about": "“Treatment of periodontitis” (Chesebrough-Pond's USA Co., Division of Conopco, Inc., priority 1991, dated 1993)",
  "key": {"cyclo-oxygenase": {"target": "T1, cyclo-oxygenase (Ovis aries, UniProt P05979)", "T1 construct": "microsomal enzyme fraction, obtained from a 220,000 x g precipitate of a homogenate of sheep vesicular glands; from tissue; host or cells: sheep vesicular glands (lyophilized microsomal fraction, 220,000 x g precipitate)", "T1 sequence (P05979 25-600)": "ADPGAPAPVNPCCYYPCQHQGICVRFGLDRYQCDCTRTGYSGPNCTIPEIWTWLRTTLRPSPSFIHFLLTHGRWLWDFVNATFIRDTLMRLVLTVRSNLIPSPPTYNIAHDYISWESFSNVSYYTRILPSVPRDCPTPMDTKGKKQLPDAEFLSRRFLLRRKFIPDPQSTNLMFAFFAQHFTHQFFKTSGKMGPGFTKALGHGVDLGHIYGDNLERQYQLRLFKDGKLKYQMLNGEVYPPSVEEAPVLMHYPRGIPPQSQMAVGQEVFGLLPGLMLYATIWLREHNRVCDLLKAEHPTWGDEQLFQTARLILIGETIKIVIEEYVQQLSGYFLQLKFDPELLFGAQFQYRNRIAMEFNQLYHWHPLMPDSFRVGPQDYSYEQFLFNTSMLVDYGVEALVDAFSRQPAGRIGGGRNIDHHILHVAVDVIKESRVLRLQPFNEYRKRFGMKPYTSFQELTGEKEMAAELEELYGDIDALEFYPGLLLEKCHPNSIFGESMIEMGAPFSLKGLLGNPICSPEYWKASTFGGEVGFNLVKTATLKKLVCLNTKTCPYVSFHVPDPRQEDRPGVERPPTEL", "test": "cyclo-oxygenase assay (oxygen consumption, Clark oxygen electrode)", "type": "biochemical, sheep", "protocol": "In vitro experiments were carried out to determine the I50 value of various cyclo-oxygenase inhibitors. […] These experiments were carried out as described in the general method given below, keeping the enzyme and substrate concentrations constant and using increasing inhibitor concentrations. Determinations at each inhibitor concentrations were carried out in duplicate.\nThe cyclo-oxygenase assay was carried out according to the method described by van der Ouderaa et al., \"Methods in Enzymology\" 86, page 60-68 (Academic Press Inc., 1982).\n0.1M Tris-HCl (pH 8.0) kept at 25° C. and continuously aerated by bubbling air through the solution.\n20 mg/ml in toluene kept under nitrogen at -20° C.\n0.5 ml of stock solution was taken and the toluene removed under a stream of nitrogen. The substrate was suspended in 10 ml of incubation buffer, freshly prepared each day and kept at room temperature.\n500 mg of dry lyophilized microsomal enzyme fraction, obtained from a 220,000 x g precipitate of a homogenate of sheep vesicular glands, was dispersed in 10 ml of incubation buffer for 5 min. using an Ultra Turrax homogeniser. The suspension was kept in ice throughout the experiment and shaken well before each sample was withdrawn.\n0.23 mM in distilled water freshly prepared each day and kept on ice.\n0.1 mM made up in incubation buffer, freshly prepared each day and kept on ice.\nThe cyclo-oxygenase activity was measured at 25° C. by monitoring the oxygen consumption as a result of cyclo-oxygenation of the substrate using a Clark oxygen electrode.\nA typical experimental run was carried out as follows.\nThe mixture was then stirred for 5 min. to allow temperature equilibrium and to achieve a steady baseline on the chart recorder monitoring the dissolved oxygen concentration. Substrate solution (100 μl) was quickly injected into the cell to start the reaction and the oxygen consumption was typically monitored for 5 min. following addition of substrate.\nThe cyclo-oxygenase activity of the sample was calculated from the oxygen consumption curve assuming that maximum deflection of the recorder corresponds to 0.26 mM dissolved oxygen in the buffer and that 2 moles of oxygen are consumed per mole of substrate. The linear part of the sigmoid curve of oxygen consumption was used for initial-rate calculations.\nThe experiments were standardised by measuring the activity of the enzyme stock solution before and after each set of kinetic experiments and normalizing results to the mean activity.\nTriclosan was dissolved in ethanol; AN-10 and APCF3-8 were dissolved in polyethyleneglycol (MW 400) and sodium salicylate was used as an aqueous solution. The concentration of the inhibitor solutions were adjusted so that only 10 μl of the inhibitor solution was added."}, "Neonatal mouse calvaria [1]": {"system": "Neonatal mouse calvaria", "test": "Bone loss in vitro: calcium release from calvaria stimulated with PGE2", "type": "cell-based", "settings": "Example 2", "protocol": "(§1) The experimental method used is fully described in Meghi,S et al. Brit. J. Cancer (1988) 58, pp 17-21. Neonatal mouse calvaria were isolated with minimum trauma and maintained in a nutrient medium appropriate for cell culture (DMEM+15% horse serum) at […] in 100% humidity, the medium also containing the materials under test. The pH was maintained in an atmosphere of 5% CO2. After 24 h the medium was discarded, the calvaria were divided into control and test groups, and the medium was replaced with fresh medium containing the materials under test. Prostaglandin E2 (PGE2, 10^-6 M) was added with or without Triclosan as appropriate to stimulate the release of calcium ions (i.e. bone resorption) from the calvaria. After two days further culture in the test media the release of calcium into the medium from the calvaria was determined by atomic absorption spectroscopy. Calcium release is a measure of bone resorption (i.e. degradation of bone) regulated by the specialised cells (osteoblasts and osteoclasts) on the bone surface. Net calcium release was obtained by subtracting the basal medium calcium level."}, "Neonatal mouse calvaria [2]": {"system": "Neonatal mouse calvaria", "test": "Bone loss in vitro: calcium release from calvaria stimulated with thrombin", "type": "cell-based", "protocol": "as §1\nThe test method of Example 2 was repeated, using thrombin, however, as bone loss stimulator, and using indomethacin as a cyclo-oxygenase inhibitor as control.\nThe procedure of Example 3 was repeated, also using zinc citrate as addition."}, "[3]": {"system": "Actinobacillus actinomycetemcomitans", "test": "MIC-value of Triclosan for periodontal micro organisms", "type": "cell-based"}, "[4]": {"test": "Retention by gingival tissue following topical application", "settings": "in vitro and in vivo"}, "[5]": {"settings": "sheep vesicular gland microsomal enzyme, 8,11,14-eicosatrienoic acid substrate, 25° C., pH 8.0, read-out: I50 (concentration of inhibitor which gives 50% inhibition of cyclo-oxygenase activity)"}},
  "note": "Like-named read-outs stand apart in the source and are kept apart here.",
  "data": [
    {"compound": "CCCCCCCCCC(=O)c1ccc(O)c(C(=O)Nc2ccc([N+](=O)[O-])cc2)c1", "note": "[AN-10, 5-n-decanoyl-4'nitrosalicylanilide]", "values": [
      {"measurement": "IC50", "setting": "cyclo-oxygenase; [5]", "result": 180, "unit": "µM"}
    ]},
    {"compound": "CCCCC[C@H](O)/C=C/[C@H]1[C@H](O)CC(=O)[C@@H]1C/C=C\\CCCC(=O)O", "note": "[PGE2, Prostaglandin E2]", "values": [
      {"measurement": "Net Calcium Release", "setting": "Neonatal mouse calvaria [1]; PGE2 10^-6 M alone (positive control), two days culture", "result": 3.5, "unit": "mg/dL"}
    ]},
    {"compound": "O=C([O-])CC(O)(CC(=O)[O-])C(=O)[O-].O=C([O-])CC(O)(CC(=O)[O-])C(=O)[O-].[Zn+2].[Zn+2].[Zn+2]", "note": "[zinc citrate]", "values": [
      {"measurement": "Net Calcium Release", "setting": "Neonatal mouse calvaria [2]; Example 4, + thrombin and 1.10^-4 M zinc citrate", "result": 1.3, "unit": "mg/dL"},
      {"measurement": "Net Calcium Release", "setting": "Neonatal mouse calvaria [2]; Example 4, + thrombin and 2.10^-4 M zinc citrate", "result": 0.8, "unit": "mg/dL"},
      {"measurement": "Net Calcium Release", "setting": "Neonatal mouse calvaria [2]; Example 4, + thrombin and 5.10^-5 M zinc citrate", "result": 1.4, "unit": "mg/dL"}
    ]},
    {"compound": "thrombin", "values": [
      {"measurement": "Net Calcium Release", "setting": "Neonatal mouse calvaria [2]; Example 3, + thrombin alone", "result": 3.9, "unit": "mg/dL"},
      {"measurement": "Net Calcium Release", "setting": "Neonatal mouse calvaria [2]; Example 4, thrombin alone", "result": 2.4, "unit": "mg/dL"}
    ]},
    {"compound": "Oc1cc(Cl)ccc1Oc1ccc(Cl)cc1Cl", "note": "[Triclosan, 2',4,4'-trichloro-2-hydroxy-diphenyl-ether]", "values": [
      {"measurement": "IC50", "setting": "cyclo-oxygenase", "result": 155, "unit": "µM"},
      {"measurement": "anti-cyclo-oxygenase activity", "setting": "cyclo-oxygenase; in words", "result": "considerable anti-cyclo-oxygenase activity"},
      {"measurement": "anti-inflammatory potency compared with the preferred substituted salicylamides", "setting": "cyclo-oxygenase; in words, salicylamides of U.S. Pat. No. 4,742,083", "result": "much more potent anti-inflammatory agent than the preferred substituted salicylamides"},
      {"measurement": "MIC-value", "setting": "[3]", "result": 0.0005, "unit": "%"},
      {"measurement": "Net Calcium Release", "setting": "Neonatal mouse calvaria [1]; + PGE2 (10^-6 M) and 1.10^-5 Triclosan", "result": 1.4, "unit": "mg/dL"},
      {"measurement": "Net Calcium Release", "setting": "Neonatal mouse calvaria [1]; + PGE2 (10^-6 M) and 2.5.10^-5 M Triclosan", "result": -0.1, "unit": "mg/dL"},
      {"measurement": "Net Calcium Release", "setting": "Neonatal mouse calvaria [2]; Example 3, + thrombin and 1.10^-5 M Triclosan", "result": 0.2, "unit": "mg/dL"},
      {"measurement": "Net Calcium Release", "setting": "Neonatal mouse calvaria [2]; Example 3, + thrombin and 5.10^-5 M Triclosan", "result": -0.6, "unit": "mg/dL"},
      {"measurement": "Net Calcium Release", "setting": "Neonatal mouse calvaria [2]; Example 4, + thrombin and 5.10^-6 M Triclosan", "result": 0.75, "unit": "mg/dL"},
      {"measurement": "retention by gingival tissue", "setting": "[4]", "result": "retained by gingival tissue both in vitro and in vivo"}
    ]},
    {"compound": "COc1ccc2c(c1)c(CC(=O)O)c(C)n2C(=O)c1ccc(Cl)cc1", "note": "[indomethacin]", "values": [
      {"measurement": "Net Calcium Release", "setting": "Neonatal mouse calvaria [2]; Example 3, + thrombin and 10^-6 M indomethacin", "result": 0.4, "unit": "mg/dL"},
      {"measurement": "Net Calcium Release", "setting": "Neonatal mouse calvaria [2]; Example 4, + thrombin and 10^-6 M indomethacin", "result": 0.0, "unit": "mg/dL"}
    ]},
    {"compound": "CCCCCCCC(=O)c1ccc(O)c(C(=O)Nc2cccc(C(F)(F)F)c2)c1", "note": "[APCF3-8, 5-n-octanoyl-'trifluoromethylphenyl-salicylanilide]", "values": [
      {"measurement": "IC50", "setting": "cyclo-oxygenase; [5]", "result": 240, "unit": "µM"}
    ]}
  ]
}
